Measurements taken from US5747507A, “Cardio-protective agent” (priority 1992, dated 1998).
“And” between values parts separate entries of the source, which are not always exact repeats. Equal entries are not always repeated.

How the values were obtained:
[1] = literature; cited from earlier work
isolated hearts [2] = assay: Inhibitory effect on myocardial cell injury caused by ischemia/reperfusion (2): leaked lactate dehydrogenase activity, isolated hearts (Langendorff method); design: species or system rats; conditions: for Lactate dehydrogenase activity, before ischemia / Lactate dehydrogenase activity, 10 min after initiation of reperfusion: mean values; for Activities of the leaked enzymes (in words): lactate dehydrogenase and creatine kinase, ischemia/reperfusion
Source text: (§1) Hearts excised from male Wistar rats (approximately six-week old) were perfused with the Krebs-Heiseleit solution according to the Langendorff method [Tamura and Fujii, "Yakurigaku Jikkenho (Experimental Methods in Pharmacology)", pp. 176-177, 1990, published by Kyodo-isho Publishing Co., Ltd., Japan; and Yamada, Kubota et al., "Yakurigaku Jisshu (Pharmacological Practice)", pp. 79-81, 1979, published by Kodansha Scientific Co., Ltd., Japan]. After the isolated hearts were allowed to stabilize, the flowing of the perfusate was temporarily stopped, and the isolated hearts were allowed to be in an ischemic state for 40 minutes. Subsequently, reperfusion was conducted for 40 minutes.
(§2) Inhibitory effect on myocardial cell injury caused by ischemia/reperfusion (2)
(§3) In the same manner as in Example 2, hearts excised from rats were perfused in the Krebs-Henseleit solution in accordance with the Langendorff method. After the isolated hearts were allowed to stabilize, the flowing of the perfusate was temporarily stopped, and the isolated hearts were allowed to be in an ischemic state for 20 minutes. Subsequently, reperfusion was conducted for 60 minutes. As activities of the leaked enzymes, the lactate dehydrogenase activity and […] activity were examined with respect to each of the samples using an autoanalizer (Super Z 818, manufactured and sold by NITTEC Co., Ltd., Japan). The aqueous solutions of the hydrochlorides of compounds (1) and (83) were individually introduced to and perfused in a perfusion circuit with reperfusate simultaneously with the initiation of the reperfusion under the conditions as shown in Table 4. As a control, physiological saline was perfused with the reperfusate in the same manner as mentioned above. The above-mentionedactivities of the enzymes leaked into the perfusate and reperfusate were, respectively, measured before the ischemia and 10 minutes after the initiation of reperfusion.

vascular smooth muscle = conditions: literature; cited from earlier work
isolated hearts [3] = assay: Inhibitory effect on myocardial cell injury caused by ischemia/reperfusion (2): leaked creatine kinase activity, isolated hearts (Langendorff method); design: species or system rats; conditions: mean values
Source text: as §1, §2, §3

[4] = literature; cited from earlier work; remark: listed apart in the source
[5] = literature; cited from earlier work; remark: listed apart in the source
[6] = test system: endothelin-induced myocardial infarction; assay: Inhibitory effect on endothelin-induced myocardial infarction: lactate dehydrogenase activity in rabbit plasma; assay type: in vivo, Japanese White rabbits
Source text: (§4) Inhibitory effect on endothelin-induced myocardial infarction
(§5) The inhibitory effect of the cardio-protective agent of the present invention on endothelin-induced myocardial infarction was examined in the following manner.
(§6) The animals used in the examination were Japanese White rabbits each weighing 2.0 to 3.1 kg, which were divided into two groups, i.e., a first group consisting of 40 rabbits and a second group consisting of 13 rabbits. The hydrochloride of the above-mentioned compound (1) was dissolved in distilled water, and the resultant solution was orally administered to each of 10 rabbits of the first group in an amount of 3.0 mg/kg (body weight). In the same manner as mentioned above, diltiazem and nicorandil were individually, orally administered to each of another 10 rabbits of the first group. As a control, distilled water was orally administered to each of the remaining 10 rabbits of the first group.
(§7) With respect to the rabbits of the second group, the above-prepared aqueous solution of the hydrochloride of compound (1) was orally administered to each of 7 rabbits in the same manner as mentioned above, and as a control, distilled water was orally administered to each of the remaining 6 rabbits.
(§8) Fifteen minutes after the administration, 1.2 nmol/kg (body weight) of endothelin (manufactured and sold by Peptide Institute, Japan) was injected into the auricular vein of each of the above rabbits of the first and second groups, thereby inducing myocardial infarction. With respect to the rabbits of the first and second groups, the degree of myocardial infarction was evaluated by rabbit electrocardiogram and by measuring the activity of enzymes leaked into the rabbit plasma, respectively, as follows.
(§9) With respect to each of the rabbits of the second group, the blood was collected using a heparinized syringe just before and thirty minutes after the intravenous administration of endothelin. The collected blood was subjected to centrifugation using a cooling centrifuge (CR20B2, manufactured and sold by Hitachi Corp., Japan), to thereby separate plasma. […]

[7] = test system: endothelin-induced myocardial infarction; assay: Inhibitory effect on endothelin-induced myocardial infarction: creatine kinase activity in rabbit plasma; assay type: in vivo, Japanese White rabbits
Source text: as §4, §5, §6, §7, §8, §9

[8] = test system: endothelin-induced myocardial infarction; assay: Inhibitory effect on endothelin-induced myocardial infarction: T-wave elevation in rabbit electrocardiogram; assay type: in vivo, Japanese White rabbits; conditions: 3.0 mg/kg oral; for T-wave elevation: 15 min before endothelin 1.2 nmol/kg i.v., 3 min after endothelin, mean values
Source text: as §4, §5, §6, §8
With respect to each of the rabbits of the first group, the rabbit electrocardiogram was taken just before and 3 minutes after the injection of endothelin, according to the standard limb lead II induction method [Ozawa, Training of Electrocardiogram, p. 24-32, 1984, Chugai Igaku Co., Ltd., Japan), and T-wave elevation was measured.

isolated hearts [9] = assay: Inhibitory effect on myocardial cell injury caused by ischemia/reperfusion (1): coronary artery flow of isolated hearts (Langendorff method); design: species or system male Wistar rats; conditions: for Coronary flow change (% based on pre-ischemic values): 40 min after initiation of reperfusion; for Lowering of coronary artery flow (in words): ischemia/reperfusion; for Bradycardia and cardiac arrest (in words): perfused isolated hearts
Source text: Inhibitory effect on myocardial cell injury caused by ischemia/reperfusion (1)
as §1
Hydrochlorides of compounds (1) and (83) mentioned above were individually dissolved in distilled water, and the resultant aqueous solutions of the hydrochlorides of compounds (1) and (83) were individually introduced to and perfused in a perfusion circuit with the reperfusate for 5 minutes simultaneously with the initiation of reperfusion. In the same manner as mentioned above, diltiazem as a comparative agent and physiological saline as a control were individually perfused with the reperfusate. The perfusion conditions of the aqueous solutions of the hydrochlorides of compounds (1) and (83), diltiazem and physiological saline are shown in Table 3.
With respect to each of the test agents, the coronary artery flow was measured just before the ischemia, i.e., the stopping of the perfusion, and 40 minutes after the initiation of reperfusion using an electromagnetic flow probe FF-030P (manufactured and sold by Nippon Koden Corp., Japan).

Japanese White rabbits = assay: Toxicity in oral administration; assay type: in vivo; conditions: 30 mg/kg (body weight)
Source text: Toxity in oral administration

heart = conditions: in vivo; cited from earlier work
[10] = plasma, 3.0 mg/kg oral, 30 min after i.v. endothelin, mean values
[11] = plasma, 3.0 mg/kg oral, just before i.v. endothelin, mean values

| SMILES | Cerebral protective effect [1] | Lactate dehydrogenase activity, before ischemia (isolated hearts [2]; 10^-5 M group) | Lactate dehydrogenase activity, 10 min after initiation of reperfusion (isolated hearts [2]; 10^-5 M) | Activities of the leaked enzymes (in words) (isolated hearts [2]) | Effect on vascular smooth muscle (vascular smooth muscle) | Creatine kinase activity, before ischemia (isolated hearts [3]; 10^-5 M group) | Creatine kinase activity, 10 min after initiation of reperfusion (isolated hearts [3]; 10^-5 M) | Effect on blood flow [4] | Antihypertensive effect [5] | Inhibition of T-wave elevation (in words) [8] | T-wave elevation [8] | Coronary flow change (% based on pre-ischemic values) (isolated hearts [9]; 3 × 10^-6 M) | Lowering of coronary artery flow (in words) (isolated hearts [9]) | Bradycardia and cardiac arrest (in words) (isolated hearts [9]) | other results |
| --- | --- | --- | --- | --- | --- | --- | --- | --- | --- | --- | --- | --- | --- | --- | --- |
| O=S(=O)(c1cccc2cnccc12)N1CCCNCC1 [compound (1), 1-(5-isoquinolinesulfonyl)homopiperazine] | cerebral protective effect | 21.3 IU/min | 575.3 IU/min | greatly inhibited | relaxing effect on vascular smooth muscle | 18.6 IU/min | 901.5 IU/min | increasing effect on blood flow | antihypertensive effect | can remarkably inhibit the T-wave elevation | 0.00 mV and 0 mV | 70% | greatly inhibited | neither bradycardia nor cardiac arrest occurred | Lactate dehydrogenase activity, before ischemia (isolated hearts [2]; 10^-6 M group): 22.8 IU/min; Lactate dehydrogenase activity, 10 min after initiation of reperfusion (isolated hearts [2]; 10^-6 M): 732.8 IU/min; Creatine kinase activity, before ischemia (isolated hearts [3]; 10^-6 M group): 26.6 IU/min; Creatine kinase activity, 10 min after initiation of reperfusion (isolated hearts [3]; 10^-6 M): 1159.8 IU/min; Effect on lactate dehydrogenase activity in plasma (in words) ([6]; caused by i.v. endothelin): had an inhibitory effect; Lactate dehydrogenase activity, 30 min after administration [6, 10]: 52.1 IU/1; Lactate dehydrogenase activity, just before administration [6, 11]: 29.7 IU/1; Effect on creatine kinase activity in plasma (in words) ([7]; caused by i.v. endothelin): had an inhibitory effect; Creatine kinase activity, 30 min after administration [7, 10]: 163.9 IU/1; Creatine kinase activity, just before administration [7, 11]: 114.6 IU/1 |
| O=S(=O)(c1cccc2c(O)nccc12)N1CCCNCC1 [compound (83), 1-(1-hydroxy-5-isoquinolinesulfonyl)homopiperazine] | cerebral protective effect | 1.2 IU/min | 487.0 IU/min | greatly inhibited | relaxing effect on vascular smooth muscle | 17.4 IU/min | 881.5 IU/min | increasing effect on blood flow | antihypertensive effect | – | – | – | greatly inhibited | neither bradycardia nor cardiac arrest occurred | Number of rabbits died/Number of rabbits tested (Japanese White rabbits): 0/5; Coronary flow change (% based on pre-ischemic values) (isolated hearts [9]; 1 × 10^-5 M): 58%; Coronary flow change (% based on pre-ischemic values) (isolated hearts [9]; 3 × 10^-5 M): 61% |
| COc1ccc([C@@H]2Sc3ccccc3N(CCN(C)C)C(=O)[C@@H]2OC(C)=O)cc1 [Diltiazem, reference compound] | – | – | – | – | – | – | – | – | – | T-wave elevation was not inhibited | 0.46 mV | 54% | – | bradycardia and cardiac arrest occurred | Side effect on atrioventricular conducting system (heart): atrioventricular conducting system of the patient is depressed; Side effect on heart rate (heart): decrease in heart rate; Bradycardia (isolated hearts [9]; 1 × 10^-5 M): bradycardia; Cardiac arrest (isolated hearts [9]; 1 × 10^-5 M): cardiac arrest |
| O=C(NCCO[N+](=O)[O-])c1cccnc1 [Nicorandil] | – | – | – | – | – | – | – | – | – | T-wave elevation was not inhibited | 0.58 mV | – | – | – | – |
| N=C(N)NCCNS(=O)(=O)c1cccc2cnccc12 [(104), N-(2-guanidinoethyl)-5-isoquinolinesulfonamide] | – | – | – | – | relaxing effect on vascular smooth muscle | – | – | increasing effect on blood flow | – | – | – | – | – | – | – |
